# Data taken from patent US9890117B2, “Benzamide compounds and related methods of use” (Northwestern University, priority 2012, dated 2018).
# Tests used:
# [1] = biological target: T1, SIRT2 (Homo sapiens, UniProt Q8IXJ6); experiment: Fluor-de-Lys biochemical sirtuin deacetylation assay, SIRT2; conditions: 10 μM
# T1 construct: recombinant active enzymes SIRT1, SIRT2, and the catalytically active fragment of SIRT3
# T1 sequence (Q8IXJ6 1-389): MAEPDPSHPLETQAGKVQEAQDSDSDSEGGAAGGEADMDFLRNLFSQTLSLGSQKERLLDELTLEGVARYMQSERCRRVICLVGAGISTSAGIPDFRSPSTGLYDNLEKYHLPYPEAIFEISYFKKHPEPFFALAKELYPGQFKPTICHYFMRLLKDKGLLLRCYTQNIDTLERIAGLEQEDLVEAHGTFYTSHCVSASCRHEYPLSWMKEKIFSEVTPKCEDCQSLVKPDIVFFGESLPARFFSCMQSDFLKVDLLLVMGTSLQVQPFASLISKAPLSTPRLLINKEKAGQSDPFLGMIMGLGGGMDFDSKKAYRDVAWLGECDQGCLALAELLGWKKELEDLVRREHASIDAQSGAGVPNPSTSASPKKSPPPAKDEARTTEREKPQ
SMILES,melting point,inhibition at 10 µM [1]
"CN(C(=O)c1cccc(S(=O)(=O)N(C)c2ccc(Cl)cc2)c1)c1ccc(C#N)cc1F [Compound 203Ac, 3-(N-(4-chlorophenyl)-N-methylsulfamoyl)-N-(4-cyano-2-fluorophenyl)-N-methylbenzamide]",169 to 170 °C,15%
"CN(C(=O)c1cccc(S(=O)(=O)N(C)c2ccc([S+](C)[O-])cc2)c1)c1ccc(Cl)cc1F (centres unmarked) [Compound 203Ag, N-(4-chloro-2-fluorophenyl)-N-methyl-3-(N-methyl-N-(4-(methylsulfinyl)phenyl)-sulfamoyl)benzamide]",104 to 106 °C,14%
"CN(C(=O)c1cccc(S(=O)(=O)N(C)c2ccc(S(C)(=O)=O)cc2)c1)c1ccc(Cl)cc1F [Compound 203Ah, N-(4-chloro-2-fluorophenyl)-N-methyl-3-(N-methyl-N-(4-(methylsulfonyl)phenyl)-sulfamoyl)benzamide]",159 to 160 °C,16%
"CN(c1ccc([S+](C)[O-])cc1)S(=O)(=O)c1cccc(C(=O)Nc2ccc(C#N)cc2F)c1 (centres unmarked) [Compound 203Aj, N-(4-cyano-2-fluorophenyl)-3-(N-methyl-N-(4-(methylsulfinyl)phenyl)sulfamoyl)-benzamide]",192 to 194 °C,10%
"CN(C(=O)c1cccc(S(=O)(=O)N(C)c2ccc([S+](C)[O-])cc2)c1)c1ccc(C#N)cc1F (centres unmarked) [Compound 203Al, N-(4-cyano-2-fluorophenyl)-N-methyl-3-(N-methyl-N-(4-(methylsulfinyl)phenyl)-sulfamoyl)benzamide]",148 to 150 °C,0%
"CN(c1ccc([S+](C)[O-])cc1)S(=O)(=O)c1cc(C(=O)Nc2ccc(Cl)cc2F)ccn1 (centres unmarked) [Compound 203Aq, N-(4-chloro-2-fluorophenyl)-2-(N-methyl-N-(4-(methylsulfinyl)phenyl)sulfamoyl)-isonicotinamide]",178 to 179 °C,14%
"N#Cc1ccc(NC(=O)c2cccc(S(=O)(=O)N(c3ccc(Cl)cc3)C3CC3)c2)cc1 [Compound 203Av, 3-(N-(4-chlorophenyl)-N-cyclopropylsulfamoyl)-N-(4-cyanophenyl)benzamide]",180 to 182 °C,51%
"Cc1cc(Br)ccc1NC(=O)c1cccc(S(=O)(=O)N2CCCCCC2)c1 [Compound 203b, 3-(azepan-1-ylsulfonyl)-N-(4-bromo-2-methylphenyl)benzamide]",177 to 179 °C,0%
"CCCN(CCC)S(=O)(=O)c1cccc(C(=O)Nc2ccc(Br)cc2C)c1 [Compound 203c, N-(4-bromo-2-methylphenyl)-3-(N,N-dipropylsulfamoyl)benzamide]",135 to 136 °C,0%
"CCCN(CCC)S(=O)(=O)c1cccc(C(=O)Nc2ccc(Br)cc2)c1 [Compound 203d, N-(4-bromophenyl)-3-(N,N-dipropylsulfamoyl)benzamide]",160 to 162 °C,9%
"CCCN(CCC)S(=O)(=O)c1cccc(C(=O)Nc2cccc(Br)c2)c1 [Compound 203f, N-(3-bromophenyl)-3-(N,N-dipropylsulfamoyl)benzamide]",105 to 107 °C,60%
"CCCN(CCC)S(=O)(=O)c1cccc(C(=O)Nc2cccc([N+](=O)[O-])c2)c1 [Compound 203h, 3-(N,N-dipropylsulfamoyl)-N-(3-nitrophenyl)benzamide]",126 to 128 °C,50%
"O=C(Cc1ccc(Cl)cc1)c1cccc(S(=O)(=O)N2CCCCCC2)c1 [Compound 231a, 1-(3-(azepan-1-ylsulfonyl)phenyl)-2-(4-chlorophenyl)ethanone]",135 to 136 °C,–

# The next lines start with the values.
melting point,inhibition at 10 µM [1],SMILES
182 to 183 °C,26%,"CN(c1ccc(S(C)(=O)=O)cc1)S(=O)(=O)c1cccc(C(=O)Nc2ccc(Cl)cc2F)c1 [Compound 203Ae, N-(4-chloro-2-fluorophenyl)-3-(N-methyl-N-(4-(methylsulfonyl)phenyl)sulfamoyl)-benzamide]"
169 to 171 °C,15%,"CN(c1ccc(CN)cc1)S(=O)(=O)c1cccc(C(=O)Nc2ccc(C#N)cc2)c1.Cl [Compound 203Af, 3-(N-(4-(aminomethyl)phenyl)-N-methylsulfamoyl)-N-(4-cyanophenyl)benzamide hydrochloride]"
188 to 189 °C,16%,"CN(c1ccc(S(C)(=O)=O)cc1)S(=O)(=O)c1cccc(C(=O)Nc2ccc(C#N)cc2F)c1 [Compound 203Ai, N-(4-cyano-2-fluorophenyl)-3-(N-methyl-N-(4-(methylsulfonyl)phenyl)-sulfamoyl)benzamide]"
156 to 157 °C,0%,"CN(C(=O)c1cccc(S(=O)(=O)N(C)c2ccc(S(C)(=O)=O)cc2)c1)c1ccc(C#N)cc1F [Compound 203Ak, N-(4-cyano-2-fluorophenyl)-N-methyl-3-(N-methyl-N-(4-(methylsulfonyl)phenyl)-sulfamoyl)benzamide]"
172 to 174 °C,28%,"CN(c1ccc(Cl)cc1)S(=O)(=O)c1cc(C(=O)Nc2ccc([S+](C)[O-])cc2)ccn1 (centres unmarked) [Compound 203An, 2-(N-(4-chlorophenyl)-N-methylsulfamoyl)-N-(4-(methylsulfinyl)phenyl)-isonicotinamide]"
243 to 245 °C (dec.),20%,"CN(c1ccc([S+](C)[O-])cc1)S(=O)(=O)c1cc(C(=O)Nc2ccc(C#N)cc2)ccn1 (centres unmarked) [Compound 203Ar, N-(4-cyanophenyl)-2-(N-methyl-N-(4-(methylsulfinyl)phenyl)sulfamoyl)-isonicotinamide]"
224 to 226 °C,33%,"CN(c1ccc(S(C)(=O)=O)cc1)S(=O)(=O)c1cc(C(=O)Nc2ccc(C#N)cc2)ccn1 [Compound 203As, N-(4-cyanophenyl)-2-(N-methyl-N-(4-(methylsulfonyl)phenyl)sulfamoyl)-isonicotinamide]"
185 to 186 °C,61%,"CC(=O)c1ccc(N(C2CC2)S(=O)(=O)c2cccc(C(=O)Nc3ccc(C#N)cc3)c2)cc1 [Compound 203Aw, 3-(N-(4-acetylphenyl)-N-cyclopropylsulfamoyl)-N-(4-cyanophenyl)benzamide]"
102 to 104 °C,40%,"CCN(c1ccc(O)cc1)S(=O)(=O)c1cccc(C(=O)Nc2ccc(C#N)cc2)c1 [Compound 203Ay, N-(4-cyanophenyl)-3-(N-ethyl-N-(4-hydroxyphenyl)sulfamoyl)benzamide]"
168 to 169 °C,59%,"CCOc1ccc(N(CC)S(=O)(=O)c2cccc(C(=O)Nc3ccc(C#N)cc3)c2)cc1 [Compound 203Az, N-(4-cyanophenyl)-3-(N-(4-ethoxyphenyl)-N-ethylsulfamoyl)benzamide]"
168 to 169 °C,53%,"CCN(c1ccc(OC)cc1)S(=O)(=O)c1cccc(C(=O)Nc2ccc(C#N)cc2)c1 [Compound 203Ba, N-(4-cyanophenyl)-3-(N-ethyl-N-(4-methoxyphenyl)sulfamoyl)benzamide]"
